The text below walks through data of US10881694B2, “In vitro model for neuronal death” (priority 2003, dated 2021).

Series [1] has as its system cortical neurons. Briefly: Polarization of somal lipid raft microdomains (CTx-B staining) in cultured cortical neurons. The format is cell-based, mouse. Conditions: for inhibition of lipid raft / microdomain polarization: treatment of cortical cultures, neurotoxic insult not specified; for percentage of neurons with polarized raft microdomains: cholesterol-depleted vs control neurons; for inhibition of lipid raft polarization: FIG. 3, 25 μM A-beta 25-35 peptide and 300 μM NMDA.

Series [2] deals with cortical neurons. Briefly: Neuronal death by LDH release assay (and chromatin fragmentation, FIG. 3) after neurotoxic exposure. The format is cell-based, mouse. Conditions: for effect of co-treatment on neuroprotection by statins: co-treatment with HMG-CoA reductase inhibitor. Background: LDH leaks from cells whose membrane has failed.
In series [3] the test system is cortical neurons. Briefly: Chromatin integrity (DAPI): nuclei with condensed and fragmented chromatin. The format is cell-based, mouse. The settings on record: cholesterol-depleted vs control neurons.
The conditions of series [4]: active form of mevastatin; cited from earlier work.
Setting [5] is: three hours following 20 μM Aβ 25-35.

As for `C[N+](C)(C)CC(O)CC(=O)[O-]` (stereo not shown) [carnitine], the “inhibition of lipid raft / microdomain polarization” value in series [1] was “inhibit raft polarization”.

Consider `CC(C)CCC[C@@H](C)[C@H]1CC[C@H]2[C@@H]3CC=C4C[C@@H](O)CC[C@]4(C)[C@H]3CC[C@]12C` [cholesterol], for which, in series [2] (5 μM cholesterol co-incubated with mevastatin, or 2 mM cholesterol complexed with 2.5% βCD for 15 min after 1% βCD, 20 μM Aβ 25-35 or NMDA), the “effect on cholesterol depletion induced resistance to neuronal death (LDH release)” value was “prevented”. Further, the “effect of co-treatment on neuroprotection by statins” value in series [2] is “substantially attenuated”.

Consider `C=C1[C@@H](C)[C@H]2[C@H](Cc3ccccc3)NC(=O)[C@]23[C@H](OC(C)=O)/C=C/[C@@](C)(O)C(=O)[C@@H](C)C/C=C/[C@H]3[C@@H]1O` [cytochalasin D], for which the “inhibition of lipid raft / microdomain polarization” value in series [1] is given as “prevents the polarization of lipid microdomains”.

With `CC(O)(CCO)CC(=O)O` (stereo not shown) [mevalonate], in series [2], the “effect of co-treatment on neuroprotection by statins” value was “substantially attenuated”.

Regarding `CC[C@H](C)C(=O)O[C@H]1CCC=C2C=C[C@H](C)[C@H](CC[C@@H]3C[C@@H](O)CC(=O)O3)[C@H]21` [mevastatin], the “percentage of neurons with polarized raft microdomains” value in series [1] (1 h following 300 μM NMDA) and in series [1] (setting [5]) was “significantly lower” in each case. Further, the “inhibition of lipid raft polarization” value in series [1] is “inhibit lipid raft polarization”. In addition, the “protection against neurotoxic exposure (LDH release assay and chromatin fragmentation)” value in series [2] (25 μM A-beta 25-35 peptide) and in series [2] (300 μM NMDA) was “protect against neurotoxic exposure” each time. Further, the “percentage of neurons with condensed and fragmented chromatin” value in series [3] (24 h following 300 μM NMDA) and in series [3] (48 h following 20 μM Aβ 25-35) was “significantly lower” each time. Further, the “lipophilicity relative to simvastatin (times less lipophilic)” value in series [4] is given as “approximately 8 times”.

Regarding “A-beta 25-35 peptide: beta-amyloid peptide fragment 25-35, neurotoxic stimulus (GSNKGAIIGLM; Amyloid-beta protein 42; UniProt P05067 696-706, looked up, fragment)”, the “induction of raft microdomain polarization to a pole of the neuronal cell body” value in series [1] (neurotoxic stimulus, FIG. 1B) was “aggregation and polarization of raft microdomains”.

As to latrunculins, the “inhibition of lipid raft / microdomain polarization” value in series [1] is reported as “prevents the polarization of lipid microdomains”.

As for methyl-β-cyclodextrin [βCD], the “inhibition of raft polarization” value in series [1] (15 min exposure to 25 μM A-beta 25-35 peptide, 1 hr pre-treatment) is on record as “inhibition of raft polarization”. The “percentage of neurons with polarized raft microdomains” value in series [1] (1 h following 300 μM NMDA) and in series [1] (setting [5]) was “significantly lower” throughout. The “inhibition of lipid raft polarization” value in series [1] is reported as “inhibit lipid raft polarization”. Further, in series [1], the “inhibition of lipid raft / microdomain polarization” value is on record as “inhibits lipid raft polarization”. The “protection against neurotoxic exposure (LDH release assay and chromatin fragmentation)” value in series [2] (25 μM A-beta 25-35 peptide) and in series [2] (300 μM NMDA) was “protect against neurotoxic exposure” in each case. Also, the “protection against neuronal death / neurotoxic insults” value in series [2] (treatment of cortical cultures, insult not specified) was “protects against neuronal death”. Moreover, the “percentage of neurons with condensed and fragmented chromatin” value in series [3] (24 h following 300 μM NMDA) and in series [3] (48 h following 20 μM Aβ 25-35) was “significantly lower” in each case.
